{
  "source": "patent US20070227930A1",
  "about": "“Antimicrobial Product Combination” (priority 2006, published 2007)",
  "test_system": "allergens",
  "assay": "Evaluation of oxidants and antimicrobials for allergen deactivating ability",
  "settings": "very dilute solution, on the order of 40-80 ppm",
  "source_text": "Presumably the low levels of oxidant are still able to break up the allergen proteins, rendering them biologically inert.",
  "data": [
    {"smiles": "OCl", "note": "[hypochlorous acid]", "values": [
      {"measurement": "Allergen deactivating ability", "result": "effectively deactivate allergens"}
    ]}
  ]
}
